According to patent US20080207632A1, “PROTEIN KINASE INHIBITORS” (SUPERGEN, INC., priority 2006, published 2008):

Columns and labels:
Type in all cases: cell-based
[1] = system: Panc-1 (pancreas); test: in vitro cytotoxicity assay (Cell-Titer-Glo), Panc-1; conditions: Homo sapiens, PANC-1, 96 h; Example 20; 4 days; read-out: Cell-based IC50 values Panc-1
Experimental: (§1) To evaluate cell killing of cancer cell lines, an in vitro cytotoxicity assay was performed. The tumor cell lines used were purchased from the American Type Culture Collection, and are identified as follows: Panc-1 (pancreas), MiaPaCa-2 (pancreas), MCF-7 (breast), HT-29 (colon), U2-OS (osteosarcoma), OVCAR-3 (ovary), HepG2 (hepatocellular carcinoma) and TT (medullary thyroid). The assay utilized the Cell-Titer-Glo Non-Radioactive Cell Proliferation Assay (Promega Corp., Madison, Wis.). First the cells were cultured in RPMI 1640 medium (Cat# 21870-076, Invitrogen Corporation) supplemented with 300 mg/L L-glutamine, 100 units/ml penicillin, 100 μg/ml streptomycin and 10% fetal bovine serum. All the cell lines were incubated in a humidified incubator at 37° C. with 5% CO2 atmosphere.
(§2) Cells were plated at a density of 2000 to 10000 cells per well, depending on their growth rate, in 0.09 mL medium on day 0 in 96-well Microlite TCT microtiter plates (7418, Thermo Labsystems, Franklin, Mass.). On day 1, 10 μL of serial dilutions of the individual compounds were added to the plates in replicates of 3. After incubation for 4 days at 37° C. in a humidified incubator, the cells were lysed in the Cell-Titer-Glo reagent, which also contains luciferase enzyme. The luciferase reaction utilizes ATP released from lysed cells to produce light, the intensity of which is linearly related to the amount of ATP. Thus, the amount of light produced is a reflection of the number of cells remaining in the well after drug treatment. This luminescence was measured using a Luminoskan luminometer (Thermo Electron Corp., Vantaa, Finland) Data were expressed as the percentage of survival of control cells calculated from the luminescence corrected for background. The surviving percent of cells was determined by dividing the mean luminescence values of the treated wells by the mean luminescence values of the control and multiplying by 100.
as §1, with “Briefly,” for “To evaluate cell killing of cancer cell lines, an in vitro cytotoxicity assay was performed. The”, “thyroid), PC-3 (prostate) and A549 (lung).” for “thyroid).”
as §1, with “carcinoma), PC-3 (prostate),” for “carcinoma)”, “A549 (lung).” for “TT (medullary thyroid).”
(§3) Cells were plated at a density of 2000 to 10000 cells per well, depending on their growth rate, in 0.09 mL medium on day 0 in 96-well Microlite TCT microtiter plates (#7418, Thermo Labsystems, Franklin, Mass.). On day 1, 10 μL of serial dilutions of the individual compounds were added to the plates in replicates of 3. After incubation for 4 days at 37° C. in a humidified incubator, the cells were lysed in the Cell-Titer-Glo reagent, which also contains luciferase enzyme. […]

[2] = system: MiaPaCa-2 (pancreas); test: in vitro cytotoxicity assay (Cell-Titer-Glo), MiaPaCa-2; conditions: Homo sapiens, MIA PaCa-2, 96 h; Example 20; 4 days; read-out: Cell-based IC50 values MiaPaCa-2
Experimental: as §1, §2
as §1, with “Briefly,” for “To evaluate cell killing of cancer cell lines, an in vitro cytotoxicity assay was performed. The”, “thyroid), PC-3 (prostate) and A549 (lung).” for “thyroid).”
as §1, with “carcinoma), PC-3 (prostate),” for “carcinoma)”, “A549 (lung).” for “TT (medullary thyroid).”
as §3

[3] = system: MCF-7 (breast); test: in vitro cytotoxicity assay (Cell-Titer-Glo), MCF-7; conditions: Homo sapiens, MCF7, 96 h; Example 20; 4 days; read-out: Cell-based IC50 values MCF-7
Experimental: as §1, §2
as §1, with “Briefly,” for “To evaluate cell killing of cancer cell lines, an in vitro cytotoxicity assay was performed. The”, “thyroid), PC-3 (prostate) and A549 (lung).” for “thyroid).”
as §1, with “carcinoma), PC-3 (prostate),” for “carcinoma)”, “A549 (lung).” for “TT (medullary thyroid).”
as §3

[4] = system: HT-29 (colon); test: in vitro cytotoxicity assay (Cell-Titer-Glo), HT-29; conditions: Homo sapiens, HT-29, 96 h; Example 20; 4 days; read-out: Cell-based IC50 values HT-29
Experimental: as §1, §2
as §1, with “Briefly,” for “To evaluate cell killing of cancer cell lines, an in vitro cytotoxicity assay was performed. The”, “thyroid), PC-3 (prostate) and A549 (lung).” for “thyroid).”
as §1, with “carcinoma), PC-3 (prostate),” for “carcinoma)”, “A549 (lung).” for “TT (medullary thyroid).”
as §3

[5] = system: U2-OS (osteosarcoma); test: in vitro cytotoxicity assay (Cell-Titer-Glo), U2-OS; conditions: Homo sapiens, U2OS, 96 h; Example 20; 4 days; read-out: Cell-based IC50 values U2-Os
Experimental: as §1, §2
as §1, with “Briefly,” for “To evaluate cell killing of cancer cell lines, an in vitro cytotoxicity assay was performed. The”, “thyroid), PC-3 (prostate) and A549 (lung).” for “thyroid).”
as §1, with “carcinoma), PC-3 (prostate),” for “carcinoma)”, “A549 (lung).” for “TT (medullary thyroid).”
as §3

[6] = system: OVCAR-3 (ovary); test: in vitro cytotoxicity assay (Cell-Titer-Glo), OVCAR-3; conditions: Homo sapiens, OVCAR-3, 96 h; Example 20; 4 days; read-out: Cell-based IC50 values OVCAR-3
Experimental: as §1, §2
as §1, with “Briefly,” for “To evaluate cell killing of cancer cell lines, an in vitro cytotoxicity assay was performed. The”, “thyroid), PC-3 (prostate) and A549 (lung).” for “thyroid).”
as §1, with “carcinoma), PC-3 (prostate),” for “carcinoma)”, “A549 (lung).” for “TT (medullary thyroid).”
as §3

[7] = system: HepG2 (hepatocellular carcinoma); test: in vitro cytotoxicity assay (Cell-Titer-Glo), HepG2; conditions: Homo sapiens, HepG2, 96 h; Example 20; 4 days; read-out: Cell-based IC50 values HepG2
Experimental: as §1, §2
as §1, with “Briefly,” for “To evaluate cell killing of cancer cell lines, an in vitro cytotoxicity assay was performed. The”, “thyroid), PC-3 (prostate) and A549 (lung).” for “thyroid).”
as §1, with “carcinoma), PC-3 (prostate),” for “carcinoma)”, “A549 (lung).” for “TT (medullary thyroid).”
as §3

[8] = system: PC-3 (prostate); test: in vitro cytotoxicity assay (Cell-Titer-Glo), PC-3; conditions: 96 h; Example 20; 4 days; read-out: Cell-based IC50 values PC-3
Experimental: as §1, with “Briefly,” for “To evaluate cell killing of cancer cell lines, an in vitro cytotoxicity assay was performed. The”, “thyroid), PC-3 (prostate) and A549 (lung).” for “thyroid).”
as §2
as §1, with “carcinoma), PC-3 (prostate),” for “carcinoma)”, “A549 (lung).” for “TT (medullary thyroid).”
as §2, with “(#7418,” for “(7418,”, “100. […]” for “100.”

[9] = system: A549 (lung); test: in vitro cytotoxicity assay (Cell-Titer-Glo), A549; conditions: Homo sapiens, A549, 96 h; Example 20; 4 days; read-out: Cell-based IC50 values A549
Experimental: as §1, with “Briefly,” for “To evaluate cell killing of cancer cell lines, an in vitro cytotoxicity assay was performed. The”, “thyroid), PC-3 (prostate) and A549 (lung).” for “thyroid).”
as §2
as §1, with “carcinoma), PC-3 (prostate),” for “carcinoma)”, “A549 (lung).” for “TT (medullary thyroid).”
as §2, with “(#7418,” for “(7418,”, “100. […]” for “100.”

COc1cc2[nH]c3ncnc(N4CCN(C(=S)Nc5ccc(S(=O)(=O)N6CCOCC6)cc5)CC4)c3c2cc1OC [Compound 1-26]
IC50 [1]: 139 µM
IC50 [2]: 8.92 µM
IC50 [3]: 14.7 µM
IC50 [4]: 176 µM
IC50 [5]: 6.95 µM
IC50 [6]: 156 µM
IC50 [7]: 4.38 µM
IC50 [8]: 22.3 µM
IC50 [9]: 130 µM

COc1cc2[nH]c3ncnc(N4CCN(C(=S)Nc5ccc(NC(=O)C6CC6)cc5)CC4)c3c2cc1OC [Compound 1-34]
IC50 [1]: 125 µM
IC50 [2]: 9.82 µM
IC50 [3]: 76.9 µM
IC50 [4]: 138 µM
IC50 [5]: 27 µM
IC50 [6]: 111 µM
IC50 [7]: 81.9 µM
IC50 [8]: 21.9 µM
IC50 [9]: 186 µM

COc1cc2[nH]c3ncnc(N4CCN(C(=S)Nc5ccc(NC(C)=O)cc5)CC4)c3c2cc1OC [Compound 1-42]
IC50 [1]: 216 µM
IC50 [2]: 182 µM
IC50 [3]: 4.62 µM
IC50 [4]: 140 µM
IC50 [5]: 41.3 µM
IC50 [6]: 85.1 µM
IC50 [7]: 98.5 µM
IC50 [8]: 189 µM
IC50 [9]: 160 µM

COc1cc2[nH]c3ncnc(N4CCN(C(=S)Nc5ccc(S(N)(=O)=O)cc5)CC4)c3c2cc1OC [Compound 1-107]
IC50 [1]: 300 µM
IC50 [2]: 107 µM
IC50 [3]: > 300 µM
IC50 [4]: > 300 µM
IC50 [5]: 8.7 µM
IC50 [6]: 176 µM
IC50 [7]: 173 µM
IC50 [8]: 2.33 µM
IC50 [9]: 51.5 µM

COc1cc2[nH]c3ncnc(N4CCN(C(=S)Nc5ccc(S(C)(=O)=O)cc5)CC4)c3c2cc1OC [Compound 1-115]
IC50 [1]: 49.8 µM
IC50 [2]: 55.4 µM
IC50 [3]: 87.8 µM
IC50 [4]: 97.4 µM
IC50 [5]: 50.4 µM
IC50 [6]: 175 µM
IC50 [7]: 57.9 µM
IC50 [8]: 75.7 µM
IC50 [9]: 149 µM
